We go through 60 compounds from the METLIN SMRT retention time set (Domingo-Almenara et al. 2019).

Structures are written as SMILES.

The series can be described thus: gradient 5% acetonitrile 3 min, to 50% in 2 min, to 85% in 15 min, held 3 min, 100 µL/min. The note with it: column: Zorbax Extend-C18 2.1 x 50 mm; eluents: water / acetonitrile, 0.1% formic acid. In short, it runs like this:
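Retention times of pure standards were taken from adduct peaks that were selected by computer and manually inspected. Over 3 months, mixtures of ~100 molecules were run by HPLC–quadrupole time-of-flight mass spectrometry in positive and negative ionization mode. The Zorbax Extend-C18 column (2.1 × 50 mm, 1.8 μm) ran at 100 μL/min in water and acetonitrile, each containing 0.1% formic acid, with 40 μL dead volume and 900 μL dwell volume.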
Consider `COc1ccc(CC(=O)N2CCC(c3cc(N)on3)CC2)cc1`, for which the RP-LC retention time amounted to 662 s.
With `O=C(NCC#CCN1CCc2ccccc2C1)c1cc(C2CC2)on1` the figure was 579 s; with `Cc1ccccc1Nc1c(-c2cccc(Cl)c2)nc2ccc(Br)cn12`, 1120 s; with `Cc1ccc(-c2nnc(-c3nc(N4CCN(c5ccccn5)CC4)c4ccccc4n3)o2)cc1`, 676 s.
Compound `O=C(Nc1cnn(-c2ncncc2N2CCSCC2)c1)NC1CCCCC1` had an RP-LC retention time of 742 s.
To `O=S(=O)(c1ccc(-c2nnc(C3CC3)o2)o1)N1CCOCC1` belongs 717 s.
For `CCCn1c(C2CCN(C(=O)c3ccc(Br)o3)C2)nc2cccnc21` (stereo not given), the RP-LC retention time worked out at 735 s.
Take `Cc1ccc(C(=O)NCc2ccc3c(c2)CCCN3C(=O)C2CCC2)c(C)c1`: the RP-LC retention time amounted to 941 s.
`Cc1nc(-c2ccc(-c3noc(C(C)NC(=O)c4ccco4)n3)cc2)cs1` (stereo not given) came in with an RP-LC retention time of 863 s.
`CCOc1ccc(CNC(=O)C2CCN(c3cncnc3N3CCOCC3)CC2)cc1`: the RP-LC retention time came out at 635 s.
`Cc1ccc(CN2C[C@@H]3C(=O)N(Cc4ccc5c(c4)OCO5)C(=O)[C@@H]3C2)c(C)c1` had an RP-LC retention time of 857 s.
As to `Cc1ccc(-c2cc3n(n2)CCCN(C(=O)Cc2ccccc2F)C3)cc1`, the RP-LC retention time was 939 s.
Compound `O=C(C1CCOCC1)N1CCC(c2noc(-c3ccccn3)n2)C1` (stereo not given) yielded an RP-LC retention time of 599 s.
With `CCNc1cc(N2CCC(CCC(=O)NCc3ccc(F)cc3F)CC2)ncn1`, the RP-LC retention time amounted to 669 s.
Consider `CC1=C(c2ccc(C)c(C)c2)S(=O)(=O)N=C1N1CCCN(C(=O)C2CC2)CC1`, for which the RP-LC retention time worked out at 793 s.
With `Cc1ccc(NC(=O)Cn2nc(C(=O)N3CCCC3)c3ccccc32)cc1C` the figure was 828 s; with `COC(=O)c1sc2ccccc2c1NC(=O)c1ccc([N+](=O)[O-])o1`, 871 s; with `CCCCS(=O)(=O)N1CCC(N2CC(F)(F)C[C@H]2COc2cccnc2)CC1`, 682 s.
In the case of `CCCNS(=O)(=O)c1cccc(-c2nnc(-c3ccc(C)cc3)o2)c1`, the RP-LC retention time was found to be 971 s.
`CC1CC(=O)N(CC(=O)Nc2cccc(Cl)c2)c2ccccc2S1` (stereo not given): the RP-LC retention time is 978 s.
Consider `Cc1nc(-c2noc(-c3ccncc3)n2)cn1CC(=O)N1CCc2ccccc21`, for which the RP-LC retention time is 678 s.
As for `Cc1cc(-c2ccc(NC(=O)c3cccs3)c(C)c2)ccc1NC(=O)c1ccsc1`, the RP-LC retention time amounted to 878 s.
In turn, `O=C(COc1ccccc1)N1CCC(CNS(=O)(=O)c2cccnc2)CC1` had an RP-LC retention time of 658 s.
On to `Cn1nc(C(=O)N2CCCCC2)c2c1CCN(C(=O)CCC(=O)NCCN1CCCC1)C2`, for which the RP-LC retention time was 578 s.
Compound `CC(O)(c1ccccc1)C(c1ccccc1)C1CCCCN1` (stereo not given) registered an RP-LC retention time of 747 s.
Take `COc1ccccc1N1CCN(C(=O)c2ccc(=O)n(Cc3ccc(F)cc3)n2)CC1`: the RP-LC retention time worked out at 763 s.
`CCc1ccccc1NC(=O)Cn1nc2n(c1=O)CCCC2`: the RP-LC retention time was determined as 674 s.
Take `Cc1ccnc(NC(=O)C2CCCN(S(=O)(=O)c3c[nH]c(C(=O)N4CCCC4)c3)C2)c1` (stereo not given): the RP-LC retention time was 614 s.
`CCOC(=O)C(C)(C)Sc1nnc(NC(=O)C2CCN(S(C)(=O)=O)CC2)s1` returned an RP-LC retention time of 721 s.
With `CC1(C(=O)NCCCN2CCc3ccccc3C2)CCCCC(=O)N1` (stereo not given) the figure was 578 s; with `CCN(CC)C(=O)c1ccc2c(c1)N(CC(=O)NC)C(=O)C1CCCCN21` (stereo not given), 684 s; with `O=C(Nc1cccc(Cl)c1)c1cn(CC(O)c2ccc3c(c2)OCO3)nn1` (stereo not given), 863 s.
In turn, `Cc1ccc(NC(=O)N2CCCC2c2cc(C)on2)c(C)c1` (stereo not given) came in with an RP-LC retention time of 823 s.
The compound `COCc1cc(=O)n2c(n1)N(Cc1c(C)noc1C)CC2` came in with an RP-LC retention time of 626 s.
`Cn1ccc2ccn(CC(=O)Nc3cccc(Br)c3)c(=O)c21` showed an RP-LC retention time of 827 s.
With `CCN(C(=O)CSC1=Nc2ccccc2NC(CC(=O)OC)=C1)c1cccc(C)c1`, the RP-LC retention time turned out to be 1160 s.
For `CC(C)CNC(=O)Cc1cn(C)c2ncccc12`, the RP-LC retention time was found to be 595 s.
On to `Cn1c(C2CCN(C(=O)Nc3ccccc3F)CC2)cc(=O)n2nccc12`, for which the RP-LC retention time stood at 622 s.
`CSc1c(N(C)C)c(=O)c1=S` gave an RP-LC retention time of 756 s.
`COc1ccc(-c2nc(CN(c3ccccc3)S(=O)(=O)c3cccs3)c(C)o2)cc1OC` displayed an RP-LC retention time of 1040 s.
With `COCCN1C(=O)CCc2cc(NS(=O)(=O)c3ccc(C)c(F)c3)ccc21` the figure was 802 s; with `CCn1cc(-c2nc(C(=O)Nc3cc(Cl)ccc3OC)cs2)c2cccnc21`, 1360 s.
To `Cc1cccc(NC(=O)NCCc2cn(CC(C)C)c3ncccc23)c1C` belongs 839 s.
In turn, `CC1=C(c2ccc(F)cc2)S(=O)(=O)N=C1N1CCCN(C(=O)C2CCC2)CC1` yielded an RP-LC retention time of 790 s.
To `Cc1cc(F)ccc1NS(=O)(=O)c1cc(-c2[nH]ncc2C(=O)N2CCCC2)oc1C` belongs 728 s.
The compound `Cc1cccc(-c2noc(C3CCCN3C(=O)CNC(=O)c3cccs3)n2)c1` (stereo not given) showed an RP-LC retention time of 610 s.
On to `CCN1c2ccc(F)cc2C(=O)NC12CCN(C(=O)Cc1ccc(C)cc1)CC2`, for which the RP-LC retention time amounted to 853 s.
In the case of `CC(C)N1CCN(C(=O)c2ccc(-c3cccs3)nc2)CC1`, the RP-LC retention time was found to be 588 s.
The compound `COc1ccc(CN2C[C@@H]3C(=O)N(CCCN4CCCC4=O)C(=O)[C@@H]3C2)cc1OC` gave an RP-LC retention time of 575 s.
For the compound `Cc1cc(C)n2c(Nc3ccc(Cl)cc3)c(-c3ccc(O)cc3)nc2n1`, the RP-LC retention time is 707 s.
The compound `CCCCN(CCCC)C(=O)C1CCCN1S(=O)(=O)c1cccc2nsnc12` (stereo not given) returned an RP-LC retention time of 1080 s.
With `CCC(C)NC(=O)N(C)CCc1noc(COc2ccc(Cl)cc2)n1` (stereo not given), the RP-LC retention time turned out to be 869 s.
Compound `CCN1C(=O)COc2ccc(-c3noc(/C=C/c4ccc(C)cc4)n3)cc21` gave an RP-LC retention time of 1230 s.
As to `Cn1nc(C(=O)N2CCCC(C(=O)Nc3ccccc3)C2)c2c1CCN(C(=O)CC1CCCC1)C2` (stereo not given), the RP-LC retention time is 800 s.
The compound `CC(COc1ccccc1Cc1ccccc1)N1CCCCC1` (stereo not given) showed an RP-LC retention time of 852 s.
With `CCOC(=O)c1ccc(NC(=O)CN2CCc3[nH]c4c(C)c(C)ccc4c(=O)c3C2)cc1` the figure was 639 s; with `O=c1cc(N2CCOCC2)c(-c2ccccc2)n[nH]1`, 623 s.
`Cc1ccc(-c2ncc3c(=O)n(CC(=O)NC4CCCCCC4)c(=O)n(C)c3n2)cc1` had an RP-LC retention time of 1080 s.
In turn, `Cc1nnc2ccc(N3CCN(C(=O)CSc4nc5ccccc5s4)CC3)nn12` gave an RP-LC retention time of 652 s.
As to `Cc1c(Cl)cccc1NC(=O)c1ccc(-n2ccnc2)nn1`, the RP-LC retention time came out at 652 s.
